The assay addresses Ca2+/CaM (Homo sapiens, UniProt P0DP23). The assay is classed as binding.

The record followed here is paper PMC6524640 (Biochimica et biophysica acta. Biomembranes, 2019).

pKd: −log10 of the molar value. No end group written: not given here.

HAGKTGSSGPLQ [SFFA] had a pKd of 6.57.

Regarding HFGKTGAASDQR [LFRA], the pKd was 3.12.

For HFGKpTGSSGPLQ [pSFWT], the “KD from titration to 15N-labeled Ca2+/CaM (result in words)” value (nanodisc free solution, same conditions as the SFWT peptide) is “did not reach saturation”.

For orientation: pKd means the Kd on a negative log10 scale, so that one unit is a factor of ten. Higher therefore signals a small Kd.
